Assay results from BigSolDB 2.1.

N#Cc1ccncc1
solubility (mole fraction)
Settings | 278.15 K | 283.15 K | 288.15 K | 293.15 K | 298.15 K | 303.15 K | 308.15 K | 313.15 K | 318.15 K
in acetone | 0.162 | 0.186 | 0.217 | 0.246 | 0.281 | 0.318 | 0.351 | 0.398 | 0.444
in ethanol | 0.0165 | 0.0242 | 0.035 | 0.0506 | 0.073 | 0.101 | 0.142 | 0.19 | 0.261
in methanol | 0.0384 | 0.0504 | 0.0656 | 0.0854 | 0.108 | 0.139 | 0.179 | 0.225 | 0.283
in n-propanol | 0.042 | 0.0556 | 0.0718 | 0.0926 | 0.118 | 0.147 | 0.184 | 0.237 | 0.303
in water | 0.00264 | 0.00327 | 0.004 | 0.00494 | 0.00603 | 0.00727 | 0.00875 | 0.0104 | 0.0123
